In ChEMBL document CHEMBL1134255, “Synthesis and evaluation of efavirenz (Sustiva) analogues as HIV-1 reverse transcriptase inhibitors: replacement of the cyclopropylacetylene side chain” (2001):

Legend:
[1] = tested on: Human immunodeficiency virus 1; test: Antiviral activity was evaluated against wild-type HIV-1 virus; assay type: functional
[2] = tested on: Human immunodeficiency virus type 1 reverse transcriptase (Human immunodeficiency virus 1), Q72547 [K103N]

Structure (SMILES)	IC90 [1]	IC90 [2]
O=C1Nc2ccc(Cl)cc2C(OCC2CC2)(C(F)(F)F)O1 (stereo not drawn)	7.7 nM	
O=C1Nc2ccc(Cl)cc2C(OCC(F)(F)C(F)(F)F)(C(F)(F)F)O1 (stereo not drawn)	651 nM	
O=C1Nc2ccc(Cl)cc2C(OCCc2ccccc2)(C(F)(F)F)O1 (stereo not drawn)	167 nM	
O=C1Nc2ccc(F)c(F)c2C(C#Cc2ccsc2)(C(F)(F)F)O1 (stereo not drawn)	2.34 nM	139 nM
C/C=C/COC1(C(F)(F)F)OC(=O)Nc2ccc(Cl)cc21 (stereo not drawn)	5.6 nM	404 nM
O=C1Nc2ccc(Cl)cc2C(OCc2ccccc2)(C(F)(F)F)O1 (stereo not drawn)	17.9 nM	
O=C1Nc2ccc(F)cc2C(C#Cc2cccs2)(C(F)(F)F)O1 (stereo not drawn)	2.93 nM	
O=C1Nc2ccc(Cl)cc2C(C#Cc2ccoc2)(C(F)(F)F)O1 (stereo not drawn)	3.8 nM	322 nM
O=C1Nc2ccc(F)c(F)c2C(C#Cc2cccnc2)(C(F)(F)F)O1 (stereo not drawn)	2.23 nM	59.3 nM
O=C1Nc2ccc(F)cc2C(C#Cc2ccccn2)(C(F)(F)F)O1 (stereo not drawn)	12.2 nM	
O=C1Nc2ccc(F)c(F)c2C(C#Cc2ccoc2)(C(F)(F)F)O1 (stereo not drawn)	3.21 nM	280 nM
O=C1Nc2ccc(Cl)cc2C(OCc2cccnc2)(C(F)(F)F)O1 (stereo not drawn)	75.3 nM	
O=C1Nc2ccc(Cl)cc2C(C#Cc2cccnc2)(C(F)(F)F)O1 (stereo not drawn)	3.97 nM	145 nM
O=C1Nc2ccc(Cl)cc2C(C#Cc2ccccn2)(C(F)(F)F)O1 (stereo not drawn)	5.39 nM	1110 nM
O=C1Nc2ccc(F)cc2C(C#Cc2ccsc2)(C(F)(F)F)O1 (stereo not drawn)	2.55 nM	193 nM
CC(C)=CCOC1(C(F)(F)F)OC(=O)Nc2ccc(F)cc21 (stereo not drawn)	2.98 nM	107 nM
O=C1Nc2ccc(Cl)cc2C(OCC=C(Cl)Cl)(C(F)(F)F)O1 (stereo not drawn)	9.5 nM	242 nM
O=C1Nc2ccc(F)c(F)c2C(C#Cc2ccccn2)(C(F)(F)F)O1 (stereo not drawn)	6.78 nM	
CCCOC1(C(F)(F)F)OC(=O)Nc2ccc(Cl)cc21 (stereo not drawn)	5.81 nM	
CCCCOC1(C(F)(F)F)OC(=O)Nc2ccc(Cl)cc21 (stereo not drawn)	10.2 nM	989 nM
C/C=C\COC1(C(F)(F)F)OC(=O)Nc2ccc(Cl)cc21 (stereo not drawn)	4.35 nM	237 nM
CC(C)=CCOC1(C(F)(F)F)OC(=O)Nc2ccc(F)c(F)c21 (stereo not drawn)	1.54 nM	65 nM

Structure (SMILES)	IC90 [1]	IC90 [2]
CC#CCOC1(C(F)(F)F)OC(=O)Nc2ccc(Cl)cc21 (stereo not drawn)	3.13 nM	310 nM
O=C1Nc2ccc(F)cc2C(C#Cc2ccoc2)(C(F)(F)F)O1 (stereo not drawn)	2.52 nM	369 nM
O=C1Nc2ccc(F)cc2C(C#Cc2cccnc2)(C(F)(F)F)O1 (stereo not drawn)	2.56 nM	329 nM
O=C1Nc2ccc(Cl)cc2C(C#Cc2ccncc2)(C(F)(F)F)O1 (stereo not drawn)	102 nM	
N#CCCOC1(C(F)(F)F)OC(=O)Nc2ccc(Cl)cc21 (stereo not drawn)	> 1500 nM	
O=C1Nc2ccc(Cl)cc2C(C#Cc2cncs2)(C(F)(F)F)O1 (stereo not drawn)	6.69 nM	
O=C1Nc2ccc(F)c(F)c2C(C#Cc2ccco2)(C(F)(F)F)O1 (stereo not drawn)	3.79 nM	
O=C1Nc2ccc(F)cc2C(OCC=C(Cl)Cl)(C(F)(F)F)O1 (stereo not drawn)	11.9 nM	
COCCOC1(C(F)(F)F)OC(=O)Nc2ccc(Cl)cc21 (stereo not drawn)	61.4 nM	
O=C1Nc2ccc(F)c(F)c2C(C#Cc2cccs2)(C(F)(F)F)O1 (stereo not drawn)	2.23 nM	156 nM
C=CCOC1(C(F)(F)F)OC(=O)Nc2ccc(F)c(F)c21 (stereo not drawn)	6.47 nM	1620 nM
O=C1Nc2ccc(F)c(F)c2C(OCC=C(Cl)Cl)(C(F)(F)F)O1 (stereo not drawn)	6.35 nM	183 nM
O=C1Nc2ccc(Cl)cc2C(C#Cc2ccsc2)(C(F)(F)F)O1 (stereo not drawn)	4.47 nM	106 nM
C=CCOC1(C(F)(F)F)OC(=O)Nc2ccc(Cl)cc21 (stereo not drawn)	3.9 nM	
CC(C)CCOC1(C(F)(F)F)OC(=O)Nc2ccc(Cl)cc21 (stereo not drawn)	10.1 nM	286 nM
C=CCCOC1(C(F)(F)F)OC(=O)Nc2ccc(Cl)cc21 (stereo not drawn)	13.7 nM	
CC(C)=CCOC1(C(F)(F)F)OC(=O)Nc2ccc(Cl)cc21 (stereo not drawn)	2.68 nM	83 nM
O=C1Nc2ccc(Cl)cc2C(C#Cc2ccco2)(C(F)(F)F)O1 (stereo not drawn)	3.8 nM	152 nM
O=C1Nc2ccc(Cl)cc2C(OCCC2CC2)(C(F)(F)F)O1 (stereo not drawn)	8.04 nM	
O=C1Nc2ccc(F)cc2C(C#Cc2ccco2)(C(F)(F)F)O1 (stereo not drawn)	2.58 nM	
C/C=C/COC1(C(F)(F)F)OC(=O)Nc2ccc(F)cc21 (stereo not drawn)	8.85 nM	1150 nM
CCOC1(C(F)(F)F)OC(=O)Nc2ccc(Cl)cc21 (stereo not drawn)	18.3 nM	
